The values that follow come from US7005539B2, “Ferulic acid dimers and their pharmaceutically acceptable salts, their preparation and use thereof for treating dementia” (Korea Institute of Science and Technology, priority 2001, dated 2006).

The subject of one data set is Sprague-Dawley rats. Nature of the data set: single-dose oral toxicity test in rats. The format is in vivo, rat. Conditions: for LD50: oral, one time, in corn oil, observed 7 days. As for the experimental part:
Twenty female and twenty male Sprague-Dawley rats aged 4 weeks were divided into four groups including 5 female and 5 male rats, after being raised in a vivarium of temperature 22±3° C., relative humidity 50±10%, illumination 150–300 Lux for 1 week.
The ferulic acid dimers prepared in Example 1 was dissolved in corn oil, and the rats of 4 groups were orally administered with the solutions at a dose of 300, 1,000, 3,000 and 10,000 mg/kg one time. For 7 days after administration, changes of general symptoms and occurrence of death were observed. In addition, the rats were killed on day 7 after administration, dissected, and internal organs were examined with unaided eye. From the extract administration day, daily weight changes were measured and thus the weight decrease of animals attributed to ferulic acid dimers was observed.

Data set [1] relates to mice administered with beta-amyloid. Nature of the data set: passive avoidance test in mice given beta-amyloid into the cerebral ventricle. The data set is classed as in vivo, mouse. The following applies: group C (dimer and beta-amyloid) compared with group B (beta-amyloid (1–42) only); 24 h after training; maximum 300 seconds; FIG. 1. As for the experimental part: Four groups of 10 mice aged 4–5 weeks, weighing 20–25 g, were administered with samples dissolved in 1% DMSO and 1% CMC using Sonde once per 1 day(samples: A-reverse phase betaamyloid, B-betaamyloid, C-ferulic acid dimer of example 1 and betaamyloid, D-ferulic acid and betaamyloid). After injection of […] sample to the celebral ventricle on each of 3 consecutive days, passive avoidance test on days 1 and 2, and Y-maze test on days 3 and 4 following the last injection were conducted. All data attained by the average mean of 10 mice each group.
Injection into the cerebral ventricle was performed according to the method described in Laursen & Belknap, J. Pharmacol. Methods. 1986, 16, 355. […]
In order to examine the learning and memory-retention ability of a mouse, a passive avoidance test was carried out in accordance with the method described in Song et al., J. Neurochem., 1998, 71, 875. […] Twenty-four hours after the training, the mouse was put in the light room again and the time it took to enter the dark room was measured as a passive avoidance time. The maximum restriction time was set at 300 seconds, i. e., in cases where the mouse took more than 300 seconds to enter the dark room, the passive avoidance time was determined to be 300 seconds.

In another data set the test system is cynuclein. As to the kind of experiment: T7 phage display selection of human brain cDNA library proteins on immobilized ferulic acid (chemical genomics). The format is binding. The following applies: screening repeated 3–4 times; identified by sequencing and BLAST. The text has this: (§1) In order to study a functional mechanism of ferulic acid dimers, the present inventors conducted an experiment to screen from protein libraries proteins conjugatable with ferulic acid by use the method of chemical genomics. To this end, ferulic acid was immobilized onto a solid substrate and treated with T7 phages having proteins translated from a human brain and cDNA library on their surface to select the proteins bound to the immobilized ferulic acid. For selection of the proteins with the best affinity for ferulic acid, the screening procedure was repeated 3–4 times. Base sequencing of the cDNA selected allowed the amino acid sequences of the corresponding proteins to be inferred. […] Of the proteins thus identified, cynuclein and plasophylin attracted particular attention. These two proteins, known to be directly or indirectly associated with formation of intercelluar or intracelluar plaque, were therefore found to be inhibited from forming plaques by ferulic acid.

A further data set deals with plasophylin. Described as above. The data set is classed as binding. The following applies: screening repeated 3–4 times; identified by sequencing and BLAST.
Text: as §1

The next data set has as its system mouse. The following applies: separated ferulic acid monomer administered to mouse; cited from earlier work.

Take `O=C(O)C=Cc1ccc(O)c(OCCOc2cc(C=CC(=O)O)ccc2O)c1` [Example 1, 1,2-[2-hydroxy-5-(2-carboxyvinyl)]phenoxyethane]: the LD50 in the data set on Sprague-Dawley rats (females) is listed as 2,804 mg/kg; with Sprague-Dawley rats (males), 3,722 mg/kg. For the same compound, the body weight entry with Sprague-Dawley rats (groups administered with 1,000 mg/kg or less) was “not decreased”. In addition, the “pathological changes seen with naked eye on dissection” value with Sprague-Dawley rats (surviving animals, groups administered 1,000 mg/kg or less, day 7) is given as “No pathological changes”. For the same compound, the step-through latency entry in data set [1] is on record as “significantly higher”.

In the case of `COc1cc(/C=C/C(=O)O)ccc1O` [ferulic acid, 4-hydroxy-3-methoxy cinnamic acid], the “protein selected as bound to immobilized ferulic acid” value with cynuclein and in the data set on plasophylin was “specifically bound” each time. Also, the “memory-retention ability of mouse” value in the data set with mouse is recorded as “considerably increased”.
